Ten compounds from ChEMBL document CHEMBL1201862, “PubChem BioAssay data set” (2004) can be followed below.

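Following 48 hours of exposure in 96-well plates, responses at five concentrations were used to interpolate endpoints linearly. Here, GI50 denotes the concentration required for 50% inhibition of growth.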 The source made the active and inactive calls. Cut-off read from the data, not from the text of the source: active = GI50 up to about 1.1 µM and inactive = higher.

Test systems include OVCAR-8; SK-MEL-2; KM12; Hs-578T; COLO 205; SF-539; PC-3; HT-29; T47D; HCT-15; HCT-116; K562; SW-620; HOP-62; UACC-257; OVCAR-3; MOLT-4; HOP-92; NCI-H522; TK-10.
Assay in all cases: NCI tumour cell line growth inhibition, 48 h

`O[C@H]1[C@H](O)[C@@H](O)[C@@]2(O)CC[C@@H]1N2`: the GI50 in the assay with OVCAR-8, in the assay with SK-MEL-2, in the assay on KM12, in the assay with Hs-578T, with COLO 205 and with SF-539 was > 100 µM (inactive) in each case. Also, the GI50 in the assay with PC-3 is > 100 µM (inactive); in the assay with HT-29, > 100 µM (inactive); with T47D, > 100 µM (inactive); in the assay with HCT-15, over 100 µM; in the assay on HCT-116, > 100 µM (inactive); in the assay with K562 it was > 100 µM (inactive). Besides, the GI50 with SW-620, with HOP-62, in the assay with UACC-257, in the assay with OVCAR-3, with MOLT-4 and in the assay on HOP-92 was > 100 µM (inactive) throughout. For the same compound, the GI50 with NCI-H522 and with TK-10 was > 100 µM (inactive) each time.

Take `CN1C(=O)C(O)CC1c1cccc(C(F)(F)F)c1` (stereo not given): the GI50 in the assay with OVCAR-8, in the assay with SK-MEL-2, in the assay with KM12, with Hs-578T, in the assay on COLO 205 and in the assay with SF-539 was > 100 µM (inactive) throughout. Also, the GI50 with PC-3 is > 100 µM (inactive); in the assay with HT-29, > 100 µM (inactive); with T47D it was > 100 µM (inactive); in the assay on HCT-15, over 100 µM; in the assay on HCT-116 it was > 100 µM (inactive); in the assay on K562, > 100 µM (inactive). For the same compound, the GI50 with SW-620, in the assay with HOP-62, in the assay with UACC-257, in the assay with OVCAR-3, in the assay on MOLT-4 and with HOP-92 was > 100 µM (inactive) throughout. In addition, the GI50 in the assay on NCI-H522 and in the assay with TK-10 was > 100 µM (inactive) in each case.

Consider `Cc1cc2occ(S(=O)(=O)NC(=O)Nc3ccc(Cl)cc3)c(=O)c2c(=O)o1`, for which the GI50 in the assay with OVCAR-8, with SK-MEL-2, in the assay on KM12, in the assay on Hs-578T, in the assay with COLO 205 and in the assay with SF-539 was > 100 µM (inactive) each time. Moreover, the GI50 with PC-3 is > 100 µM (inactive); in the assay on HT-29, > 100 µM (inactive); in the assay with T47D it was > 100 µM (inactive); in the assay on HCT-15, 9.18 µM; in the assay with HCT-116, > 100 µM (inactive); in the assay with K562, > 100 µM (inactive). Further, the GI50 in the assay on SW-620, in the assay with HOP-62, in the assay on UACC-257, with OVCAR-3, with MOLT-4 and in the assay with HOP-92 was > 100 µM (inactive) in each case. Further, the GI50 with NCI-H522 and in the assay with TK-10 was > 100 µM (inactive) in each case.

`Cc1nnc2sc(-c3ccc([N+](=O)[O-])o3)nn12`: the GI50 with OVCAR-8 was 11.4 µM (inactive); with SK-MEL-2 it was 10.4 µM (inactive); with KM12, 15.8 µM (inactive); in the assay with Hs-578T it was 30.3 µM (inactive); in the assay with COLO 205 it was 13.2 µM (inactive); with SF-539 it was 4.84 µM (inactive). Also, the GI50 in the assay with PC-3 was 14.7 µM (inactive); with HT-29, 12.9 µM (inactive); in the assay on T47D, 20 µM (inactive); with HCT-15 it was 5.06 µM; in the assay on HCT-116, 6.46 µM (inactive); with K562, 5.33 µM (inactive). Also, the GI50 in the assay on SW-620 was 4.85 µM (inactive); with HOP-62 it was 15.2 µM (inactive); with UACC-257, 12.7 µM (inactive); in the assay on OVCAR-3, 12.8 µM (inactive); in the assay on MOLT-4, 3.15 µM (inactive); in the assay on HOP-92 it was 15.9 µM (inactive). Also, the results for the GI50 in the assay on NCI-H522 and in the assay on TK-10 were 3.03 µM (inactive) and 15.3 µM (inactive), respectively.

In the case of `Nc1nc(Cl)cc(NCC2(CO)CC=CC2)n1`, the GI50 is 79.8 µM (inactive) in the assay on OVCAR-8; > 100 µM (inactive) in the assay with SK-MEL-2; > 100 µM (inactive) in the assay with KM12; > 100 µM (inactive) in the assay with Hs-578T; > 100 µM (inactive) with COLO 205; > 100 µM (inactive) in the assay with SF-539. Further, the GI50 with PC-3 is > 100 µM (inactive); in the assay with HT-29, > 100 µM (inactive); with T47D, 47.1 µM (inactive); in the assay with HCT-15, over 100 µM; in the assay on HCT-116, > 100 µM (inactive); in the assay with K562, > 100 µM (inactive). Moreover, the GI50 in the assay on SW-620 was > 100 µM (inactive); with HOP-62, > 100 µM (inactive); in the assay with UACC-257, > 100 µM (inactive); in the assay with OVCAR-3, 80.2 µM (inactive); in the assay on MOLT-4 it was > 100 µM (inactive); in the assay with HOP-92, > 100 µM (inactive). For the same compound, the GI50 in the assay on NCI-H522 is 68.7 µM (inactive); in the assay on TK-10, > 100 µM (inactive).

As to `COC12C(COC(=O)NCCO)C3=C(C(=O)C(C)=C(N)C3=O)N1CC1NC12` (stereo not given), the GI50 was 38.3 µM (inactive) with OVCAR-8; 30.9 µM (inactive) with SK-MEL-2; 69.3 µM (inactive) with KM12; 198 µM (inactive) with Hs-578T; 37.7 µM (inactive) with COLO 205; 7.83 µM (inactive) in the assay on SF-539. The GI50 in the assay with PC-3 was 35.2 µM (inactive); with HT-29, 29.2 µM (inactive); in the assay with T47D, 60.3 µM (inactive); in the assay with HCT-15 it was 170 µM; in the assay with HCT-116 it was 18.9 µM (inactive); in the assay with K562, 103 µM (inactive). The GI50 with SW-620 is 16.7 µM (inactive); with HOP-62, 6.47 µM (inactive); in the assay with UACC-257, 69.7 µM (inactive); in the assay with OVCAR-3, 68.7 µM (inactive); in the assay with MOLT-4, 35.2 µM (inactive); in the assay on HOP-92 it was 30 µM (inactive). The GI50 in the assay on NCI-H522 is 14.5 µM (inactive); with TK-10, 83.2 µM (inactive).

As for `CC(=O)OC1C(C)OC(OC2C[C@](O)(C(C)=O)Cc3c(O)c4c(c(O)c32)C(=O)c2ccccc2C4=O)C(F)C1OC(C)=O` (stereo not given in full), the GI50 in the assay with OVCAR-8 is 0.543 µM (active); with SK-MEL-2, 3.11 µM (inactive); in the assay on KM12 it was 1.85 µM (inactive); with Hs-578T, 0.476 µM (active); in the assay with COLO 205, 1.98 µM (inactive); in the assay on SF-539 it was 0.194 µM (active). The GI50 in the assay with PC-3 is 0.971 µM (active); in the assay on HT-29 it was 1.42 µM (inactive); in the assay on T47D, 0.522 µM (active); with HCT-15, 0.358 µM; in the assay with HCT-116, 0.318 µM (active); in the assay with K562, 1.63 µM (inactive). Moreover, the GI50 in the assay with SW-620 was 0.495 µM (active); in the assay on HOP-62, 0.367 µM (active); in the assay with UACC-257, 1.8 µM (inactive); with OVCAR-3, 2.52 µM (inactive); with MOLT-4 it was < 0.0142 µM (active); in the assay on HOP-92, 0.457 µM (active). Further, the GI50 is 0.61 µM (active) in the assay with NCI-H522 and 1.6 µM (inactive) with TK-10.

Regarding `CCCCCCCCCCCCCCCCCCOCC(COCCOCC[N+]1(CCCCCC(=O)[O-])CCCC1)Oc1ncccn1` (stereo not given), the GI50 is 2.56 µM (inactive) in the assay on OVCAR-8; 6.05 µM (inactive) in the assay with SK-MEL-2; 2.58 µM (inactive) in the assay on KM12; 13.6 µM (inactive) in the assay with Hs-578T; 1.11 µM (active) with COLO 205; 4.36 µM (inactive) with SF-539. Further, the GI50 in the assay with PC-3 was 0.643 µM (active); with HT-29, 1.73 µM (inactive); with T47D, 5.13 µM (inactive); with HCT-15, 12.8 µM; in the assay on HCT-116, 1.82 µM (inactive); with K562 it was 2.19 µM (inactive). The GI50 in the assay on SW-620 is 4.57 µM (inactive); in the assay on HOP-62 it was 1.88 µM (inactive); with UACC-257 it was 8.02 µM (inactive); with OVCAR-3 it was 5.2 µM (inactive); in the assay with MOLT-4, 4.92 µM (inactive); with HOP-92, 1.05 µM (active). Further, the GI50 is 1.34 µM (inactive) with NCI-H522 and 4.06 µM (inactive) with TK-10.

In the case of `C[C@]12CCC(=O)C=C1CC[C@@H]1[C@@H]2CC[C@]2(C)C(=O)/C(=C/c3ccc([N+](=O)[O-])cc3)C[C@@H]12`, the GI50 in the assay on OVCAR-8 is 45.8 µM (inactive); with SK-MEL-2 it was 62.5 µM (inactive); in the assay with KM12 it was 6.93 µM (inactive); in the assay on Hs-578T, > 100 µM (inactive); in the assay with COLO 205, 7.41 µM (inactive); in the assay with SF-539, 79.3 µM (inactive). In addition, the GI50 in the assay on PC-3 was 7.87 µM (inactive); in the assay with HT-29, > 100 µM (inactive); in the assay with T47D, 3.48 µM (inactive); in the assay on HCT-15, 10.5 µM; with HCT-116, 9.57 µM (inactive); with K562, 3.35 µM (inactive). Also, the GI50 with SW-620 is > 100 µM (inactive); in the assay on HOP-62, 49.8 µM (inactive); in the assay with UACC-257 it was 6.59 µM (inactive); in the assay with OVCAR-3, 8.91 µM (inactive); with MOLT-4 it was 2.77 µM (inactive); in the assay on HOP-92, > 100 µM (inactive). Further, the GI50 with NCI-H522 was 4.66 µM (inactive); with TK-10, > 100 µM (inactive).

For `O=c1[nH]nc(-c2ccccc2)n1/N=C/c1ccc([N+](=O)[O-])o1`, the GI50 was 3.22 µM (inactive) with OVCAR-8; 5.21 µM (inactive) in the assay with SK-MEL-2; 6.65 µM (inactive) in the assay on KM12; 27.2 µM (inactive) in the assay on Hs-578T; 4.15 µM (inactive) in the assay with COLO 205; 4.65 µM (inactive) in the assay on SF-539. The GI50 was 6.35 µM (inactive) in the assay with PC-3; 2.49 µM (inactive) in the assay with HT-29; 13.7 µM (inactive) in the assay on T47D; 2.21 µM with HCT-15; 1.37 µM (inactive) with HCT-116; 3.64 µM (inactive) with K562. The GI50 is 2.49 µM (inactive) with SW-620; 6.11 µM (inactive) in the assay on HOP-62; 4.92 µM (inactive) in the assay with UACC-257; 0.993 µM (active) in the assay on OVCAR-3; 0.962 µM (active) in the assay with MOLT-4; 6.71 µM (inactive) with HOP-92. For the same compound, the GI50 in the assay on NCI-H522 was 1.32 µM (inactive); in the assay on TK-10 it was 52.8 µM (inactive).
